≈ marks a conversion by molar mass, not a printed value. Where “and” joins values, the source holds several entries; their conditions need not be identical. Equal entries are not always repeated. Where two headings read alike, the source gives them in different places.
Assays:
Assay type in all cases: cell-based, Candida albicans
[1] = test system: C. albicans ATCC MYA-2876 (C); experiment: MIC determination by in vitro antifungal assay; details: strain C = C. albicans ATCC MYA-2876(S)
Experimental: (§1) 10 mg/mL stock solutions of compounds 1a-9j were prepared in dimethyl sulfoxide (DMSO) and were stored at −20° C. in the dark. The antifungal agent amphotericin B (AmB) was purchased from VWR (Radnor PA, USA). AmB was dissolved in DMSO at a final concentration of 5 mg/mL and was stored at −20° C., protected from light. Candida albicans American Type Culture Collection (ATCC) 10231 (strain A), C. albicans ATCC 64124 (B), and C. albicans ATCC MYA-2876 (C) were obtained from Utah State University. C. albicans ATCC 90819 (D), C. albicans ATCC MYA-2310 (E), C. albicans ATCC MYA-1237 (F), C. albicans ATCC MYA-1003 (G), Candida glabrata ATCC 2001 (H), Candida krusei ATCC 6258 (I), Candida parapsilosis ATCC 22019 (J), Cryptococcus neoformans ATCC MYA-895 (M), Aspergillus terreus ATCC MYA-3633 (N), and Aspergillus flavus ATCC MYA-3631 (0) were obtained from the American Type Culture Collection (ATCC; Manassas, VA, USA). Aspergillus nidulans ATCC 38163 (P) was obtained from University of Kentucky. Clinically derived Aspergillus fumigatus NRRL 163 (Q), A. fumigatus NRRL 5109 (R), and A. fumigatus NRRL 6113 (S) were obtained from Northern Regional Research Laboratory (NRRL). Candida auris 384 (K), C. auris 390 (L), and fungal strains 381-400 (including 10 C. auris (AR Bank #381-390), 3 Candida duobushaemulonii (AR Bank #391, AR Bank #392, and AR Bank #394), 2 Candida haemulonii (AR Bank #393 and AR Bank #395), 1 Kodameae ohmeri (AR Bank #396), 1 C. krusei (AR Bank #397), 1 Candida lusitaniae (AR Bank #398), and 2 Saccharomyces cerevisiae strains (AR Bank #399 and AR Bank #400)) were part of a larger fungal library from the AR Bank maintained by the Centers for Disease Control and Prevention (CDC; Atlanta, GA, USA). Filamentous fungi and yeasts were cultivated at 35° C. in RPMI 1640 medium (with L-glutamine, without sodium bicarbonate, Sigma-Aldrich, St. Louis, MO) buffered to a pH of 7.0 with 0.165 M morpholinepropanesulfonic acid (MOPS) buffer (Sigma-Aldrich). For cytotoxicity assays, HepG2 and the mouse macrophage cell line J774A.1 were obtained from University of Kentucky. The human embryonic kidney cell line, HEK-293, was bought from the ATCC. Mammalian cells were grown in Dulbecco's Modified Eagle's Medium (DMEM) (from VWR) with 10% fetal bovine serum (FBS) (from VWR) and 1% Pen/Strep (from ATCC). Cell lines were cultured at 37° C. with 5% CO2 and passaged by trypsinization with 0.05% trypsin: 0.53 mM EDTA (from Sigma-Aldrich).
(§2) The MIC values of compounds 1a-9j against yeast cells (strains A-P and 381-400) were determined in 96-well plates as described in the CLSI documents M27-A3 and M38-A2 with minor modifications.^2 A single colony of freshly prepared yeast cells was used to inoculate 5 mL of yeast extract peptone dextrose (YPD) broth prior to incubation overnight with shaking at 200 rpm at 35° C. From the actively growing yeast culture, 100 µL were then transferred to 900 μL of RPMI 1640 medium and re-adjusted to achieve OD600 of 0.12 (˜1×10^6 CFU/mL). The cell suspension was further diluted to achieve 1:100 in RPMI 1640 medium. 100 μL of cells were added to the wells of a 96-well microtiter plates that contained 100 µL of the compound solution to obtain concentrations of 0.06-31.3 μg/mL of compounds 1a-9j or AmB prior to incubation for 48 h at 35° C. […]

[2] = test system: C. albicans ATCC MYA-1003 (G); experiment: MIC determination by in vitro antifungal assay; details: strain G = C. albicans ATCC MYA-1063(R) (footnote), MYA-1003 in text
Experimental: as §1, §2

[3] = test system: C. albicans ATCC MYA-1237 (F); experiment: MIC determination by in vitro antifungal assay; details: strain F = C. albicans ATCC MYA-1237(R)
Experimental: as §1, §2

[4] = test system: C. albicans ATCC MYA-2310 (E); experiment: MIC determination by in vitro antifungal assay; details: strain E = C. albicans ATCC MYA-2310
Experimental: as §1, §2

[5] = test system: C. albicans ATCC 90819 (D); experiment: MIC determination by in vitro antifungal assay
Experimental: as §1, §2

[6] = test system: C. albicans ATCC 64124 (B); experiment: MIC determination by in vitro antifungal assay
Experimental: as §1, §2

[7] = test system: C. albicans ATCC 10231 (strain A); experiment: MIC determination by in vitro antifungal assay (CLSI broth dilution); details: strain A = C. albicans ATCC 10231, no visible growth, 48 h at 35° C.
Experimental: as §1, §2

[8] = strain D = C. albicans ATCC 90819(R)
[9] = strain B = C. albicans ATCC 64124
[10] = Candida albicans, read-out: MIC
[11] = Candida albicans, ATCC90819, strain D = C. albicans ATCC 90819(R), read-out: MIC
[12] = Candida albicans, ATCC64124, strain B = C. albicans ATCC 64124, read-out: MIC
[13] = Candida albicans, ATCC10231, 48 h, read-out: MIC

C[C@@H]1[C@H](O)[C@@H](C)/C=C/C=C/C=C/C=C/C=C/C=C/C=C/[C@H](O[C@@H]2O[C@H](C)[C@@H](O)[C@H](N)[C@@H]2O)C[C@@H]2O[C@](O)(C[C@@H](O)C[C@@H](O)[C@H](O)CC[C@@H](O)C[C@@H](O)CC(=O)O[C@H]1C)C[C@H](O)[C@H]2C(=O)O [AmB, amphotericin B, reference compound]
MIC [1]: 1.95 μg/mL^−1 | MIC [2]: 0.98 μg/mL^−1 and 1.95 μg/mL^−1 | MIC [3]: 1.95 μg/mL^−1 | MIC [4]: 0.98 μg/mL^−1 | MIC [5, 8]: 0.98 μg/mL^−1 | MIC [6, 9]: 1.95 μg/mL^−1 | MIC [7]: 1.95 μg/mL^−1

O=C(NNc1cccc(F)c1)c1ccc(F)cc1F [Compound 1a]
MIC [1]: 3.9 μg/mL^−1 | MIC [2]: 1.95 μg/mL^−1 | MIC [3]: 0.98 μg/mL^−1 | MIC [4]: 3.9 μg/mL^−1 | MIC [5, 8]: 7.8 μg/mL^−1 | MIC [6, 9]: 1.95 μg/mL^−1 | MIC [7]: 0.24 μg/mL^−1

O=C(NNc1cccc(Cl)c1)c1ccc(F)cc1F [Compound 1b]
MIC [1, 10]: 7.8 µg/mL (≈ 27.6 µM) | MIC [2, 10]: 3.9 µg/mL (≈ 13.8 µM) | MIC [3, 10]: 3.9 µg/mL (≈ 13.8 µM) | MIC [4, 10]: 7.8 µg/mL (≈ 27.6 µM) | MIC [5, 11]: 15.6 µg/mL (≈ 55.2 µM) | MIC [6, 12]: 7.8 µg/mL (≈ 27.6 µM) | MIC [7, 13]: 1.95 µg/mL (≈ 6.9 µM)

COc1cccc(NNC(=O)c2ccc(F)cc2F)c1 [Compound 1c]
MIC [1, 10]: 3.9 µg/mL (≈ 14 µM) | MIC [2, 10]: 1.95 µg/mL (≈ 7.01 µM) | MIC [3, 10]: 3.9 µg/mL (≈ 14 µM) | MIC [4, 10]: 3.9 µg/mL (≈ 14 µM) | MIC [5, 11]: 3.9 µg/mL (≈ 14 µM) | MIC [6, 12]: 1.95 µg/mL (≈ 7.01 µM) | MIC [7, 13]: 0.98 µg/mL (≈ 3.52 µM)

O=C(NNc1ccc(F)cc1)c1ccc(F)cc1F [Compound 1d]
MIC [1, 10]: 7.8 µg/mL (≈ 29.3 µM) | MIC [2, 10]: 1.95 µg/mL (≈ 7.32 µM) | MIC [3, 10]: 1.95 µg/mL (≈ 7.32 µM) | MIC [4, 10]: 3.9 µg/mL (≈ 14.6 µM) | MIC [5, 11]: 1.95 µg/mL (≈ 7.32 µM) | MIC [6, 12]: 7.8 µg/mL (≈ 29.3 µM) | MIC [7, 13]: 0.49 µg/mL (≈ 1.84 µM)

O=C(NNc1ccc(Cl)cc1)c1ccc(F)cc1F [Compound 1e]
MIC [1]: 15.6 μg/mL^−1 | MIC [2]: 7.8 μg/mL^−1 | MIC [3]: 1.95 μg/mL^−1 | MIC [4]: 7.8 μg/mL^−1 | MIC [5, 8]: 3.9 μg/mL^−1 | MIC [6, 9]: 15.6 μg/mL^−1 | MIC [7]: 1.95 μg/mL^−1

COc1ccc(NNC(=O)c2ccc(F)cc2F)cc1 [Compound 1f]
MIC [1, 10]: 1.95 µg/mL (≈ 7.01 µM) | MIC [2, 10]: 1.95 µg/mL (≈ 7.01 µM) | MIC [3, 10]: 1.95 µg/mL (≈ 7.01 µM) | MIC [4, 10]: 1.95 µg/mL (≈ 7.01 µM) | MIC [5, 11]: 1.95 µg/mL (≈ 7.01 µM) | MIC [6, 12]: 1.95 µg/mL (≈ 7.01 µM) | MIC [7, 13]: 0.98 µg/mL (≈ 3.52 µM)

O=C(NNc1ccc(F)cc1F)c1ccc(F)cc1F [Compound 1g]
MIC [1, 10]: 3.9 µg/mL (≈ 13.7 µM) | MIC [2, 10]: 0.98 µg/mL (≈ 3.45 µM) | MIC [3, 10]: 1.95 µg/mL (≈ 6.86 µM) | MIC [4, 10]: > 31.3 µg/mL | MIC [5, 11]: 3.9 µg/mL (≈ 13.7 µM) | MIC [6, 12]: 1.95 µg/mL (≈ 6.86 µM) | MIC [7, 13]: 1.95 µg/mL (≈ 6.86 µM)

O=C(NNc1cc(F)ccc1F)c1ccc(F)cc1F [Compound 1h]
MIC [1, 10]: 31.3 µg/mL (≈ 110 µM) | MIC [2, 10]: 31.3 µg/mL (≈ 110 µM) | MIC [3, 10]: 31.3 µg/mL (≈ 110 µM) | MIC [4, 10]: 31.3 µg/mL (≈ 110 µM) | MIC [5, 11]: 31.3 µg/mL (≈ 110 µM) | MIC [6, 12]: 15.6 µg/mL (≈ 54.9 µM) | MIC [7, 13]: 3.9 µg/mL (≈ 13.7 µM)

O=C(NNc1cc(F)cc(F)c1)c1ccc(F)cc1F [Compound 1i]
MIC [1, 10]: 15.6 µg/mL (≈ 54.9 µM) | MIC [2, 10]: 15.6 µg/mL (≈ 54.9 µM) | MIC [3, 10]: 7.8 µg/mL (≈ 27.4 µM) | MIC [4, 10]: 15.6 µg/mL (≈ 54.9 µM) | MIC [5, 11]: 15.6 µg/mL (≈ 54.9 µM) | MIC [6, 12]: 15.6 µg/mL (≈ 54.9 µM) | MIC [7, 13]: 3.9 µg/mL (≈ 13.7 µM)

O=C(NNc1cc(Cl)cc(Cl)c1)c1ccc(F)cc1F [Compound 1j]
MIC [1, 10]: > 31.3 µg/mL | MIC [2, 10]: 7.8 µg/mL (≈ 24.6 µM) | MIC [3, 10]: 15.6 µg/mL (≈ 49.2 µM) | MIC [4, 10]: > 31.3 µg/mL | MIC [5, 11]: > 31.3 µg/mL | MIC [6, 12]: > 31.3 µg/mL | MIC [7, 13]: 3.9 µg/mL (≈ 12.3 µM)

O=C(NNc1cccc(F)c1)c1ccccn1 [Compound 2a]
MIC [1]: 0.98 μg/mL^−1 | MIC [2]: 0.98 μg/mL^−1 | MIC [3]: 0.98 μg/mL^−1 | MIC [4]: 1.95 μg/mL^−1 | MIC [5, 8]: 0.49 μg/mL^−1 | MIC [6, 9]: 0.98 μg/mL^−1 | MIC [7]: ≤0.06 μg/mL^−1

O=C(NNc1cccc(Cl)c1)c1ccccn1 [Compound 2b]
MIC [1]: 0.98 μg/mL^−1 | MIC [2]: 0.49 μg/mL^−1 | MIC [3]: 0.98 μg/mL^−1 | MIC [4]: 0.98 μg/mL^−1 | MIC [5, 8]: 0.49 μg/mL^−1 | MIC [6, 9]: 0.98 μg/mL^−1 | MIC [7]: 0.12 μg/mL^−1

COc1cccc(NNC(=O)c2ccccn2)c1 [Compound 2c]
MIC [1]: 0.98 μg/mL^−1 | MIC [2]: 0.98 μg/mL^−1 | MIC [3]: 1.95 μg/mL^−1 | MIC [4]: 1.95 μg/mL^−1 | MIC [5, 8]: 1.95 μg/mL^−1 | MIC [6, 9]: 0.98 μg/mL^−1 | MIC [7]: 0.24 μg/mL^−1

O=C(NNc1ccc(F)cc1)c1ccccn1 [Compound 2d]
MIC [1, 10]: 3.9 µg/mL (≈ 16.9 µM) | MIC [2, 10]: 0.49 µg/mL (≈ 2.12 µM) | MIC [3, 10]: 1.95 µg/mL (≈ 8.43 µM) | MIC [4, 10]: 1.95 µg/mL (≈ 8.43 µM) | MIC [5, 11]: 0.98 µg/mL (≈ 4.24 µM) | MIC [6, 12]: 0.98 µg/mL (≈ 4.24 µM) | MIC [7, 13]: 0.12 µg/mL (≈ 0.519 µM)

O=C(NNc1ccc(Cl)cc1)c1ccccn1 [Compound 2e]
MIC [1]: 1.95 μg/mL^−1 | MIC [2]: 0.98 μg/mL^−1 | MIC [3]: 0.98 μg/mL^−1 | MIC [4]: 0.98 μg/mL^−1 | MIC [5, 8]: 0.24 μg/mL^−1 | MIC [6, 9]: 0.98 μg/mL^−1 | MIC [7]: 0.12 μg/mL^−1

Source: US20240425464A1, “Substituted Monohydrazides as Potent Antifungal Agents” (University of Kentucky Research Foundation, priority 2023, published 2024)
